Results as given in ChEMBL document CHEMBL1697781, “Assessment of the health effects of chemicals in humans: II. Construction of an adverse effects database for QSAR modeling” (Curr Drug Discov Technol, 2004).

Key:
Conditions in all cases: human; call rule not given here
Hepatotoxicity [1] = assay: FDA HLAED, lactate dehydrogenase (LDH) increase
Hepatotoxicity [2] = assay: FDA HLAED, gamma-glutamyl transferase (GGT) increase
Hepatotoxicity [3] = assay: FDA HLAED, serum glutamic oxaloacetic transaminase (SGOT) increase
Hepatotoxicity [4] = assay: FDA HLAED, liver enzyme composite activity
Hepatotoxicity [5] = assay: FDA HLAED, alkaline phosphatase increase
Hepatotoxicity [6] = assay: FDA HLAED, serum glutamic pyruvic transaminase (SGPT) increase
Throughout, for GGT Increase - Index Value: reference of the scale not given here.
Throughout, for LDH Increase - Index Value: reference of the scale not given here.

For `Cc1cccc(C)c1OCC(C)N` (configuration not stated) [MEXILETINE], the “LDH Increase - Activity Score” value (Hepatotoxicity [1]) was “Inactive”, the “LDH Increase - Index Value” (Hepatotoxicity [1]) was 2 and the “LDH Increase - Number of Reports” value (Hepatotoxicity [1]) was “>= 4”. For the same compound, the “GGT Increase - Activity Score” value (Hepatotoxicity [2]) was “Inactive”, the “GGT Increase - Index Value” (Hepatotoxicity [2]) was 0 and the “GGT Increase - Number of Reports” value (Hepatotoxicity [2]) was under 4. For the same compound, the “SGOT Increase - Activity Score” value (Hepatotoxicity [3]) was “Active”, the “SGOT Increase - Index Value” (Hepatotoxicity [3]) was 6.7 and the “SGOT Increase - Number of Reports” value (Hepatotoxicity [3]) was “>= 4”. For the same compound, the “Composite Activity - Active” value (Hepatotoxicity [4]; Liver) was 1, the “Composite Activity - Marginal” value (Hepatotoxicity [4]; Liver) was 2 and the “Composite Activity - Score” value (Hepatotoxicity [4]; Liver) was “Inactive”. The “Alkaline Phosphatase Increase - Activity Score” value (Hepatotoxicity [5]) was “Marginally Active”, the “Alkaline Phosphatase Increase - Index Value” (Hepatotoxicity [5]) was 3.1 and the “Alkaline Phosphatase Increase - Number of Reports” value (Hepatotoxicity [5]) was “>= 4”. For the same compound, the “SGPT Increase - Activity Score” value (Hepatotoxicity [6]) was “Marginally Active”, the “SGPT Increase - Index Value” (Hepatotoxicity [6]) was 3.6 and the “SGPT Increase - Number of Reports” value (Hepatotoxicity [6]) was “>= 4”.
In the case of `CC1(C)S[C@@H]2[C@H](NC(=O)[C@H](NC(=O)N3CCN(S(C)(=O)=O)C3=O)c3ccccc3)C(=O)N2[C@H]1C(=O)O` [MEZLOCILLIN], the “LDH Increase - Activity Score” value (Hepatotoxicity [1]) was “Inactive”, the “LDH Increase - Index Value” (Hepatotoxicity [1]) was 0 and the “LDH Increase - Number of Reports” value (Hepatotoxicity [1]) was under 4. The “GGT Increase - Activity Score” value (Hepatotoxicity [2]) was “Inactive”, the “GGT Increase - Index Value” (Hepatotoxicity [2]) was 0 and the “GGT Increase - Number of Reports” value (Hepatotoxicity [2]) was under 4. The “SGOT Increase - Activity Score” value (Hepatotoxicity [3]) was “Inactive”, the “SGOT Increase - Index Value” (Hepatotoxicity [3]) was 0 and the “SGOT Increase - Number of Reports” value (Hepatotoxicity [3]) was under 4. For the same compound, the “Composite Activity - Active” value (Hepatotoxicity [4]; Liver) was 0, the “Composite Activity - Marginal” value (Hepatotoxicity [4]; Liver) was 0 and the “Composite Activity - Score” value (Hepatotoxicity [4]; Liver) was “Inactive”. For the same compound, the “Alkaline Phosphatase Increase - Activity Score” value (Hepatotoxicity [5]) was “Inactive”, the “Alkaline Phosphatase Increase - Index Value” (Hepatotoxicity [5]) was 1.9 and the “Alkaline Phosphatase Increase - Number of Reports” value (Hepatotoxicity [5]) was under 4. The “SGPT Increase - Activity Score” value (Hepatotoxicity [6]) was “Inactive”, the “SGPT Increase - Index Value” (Hepatotoxicity [6]) was 0 and the “SGPT Increase - Number of Reports” value (Hepatotoxicity [6]) was under 4.
`Cc1ncc2n1-c1ccc(Cl)cc1C(c1ccccc1F)=NC2` [MIDAZOLAM] was tested, and the “LDH Increase - Activity Score” value (Hepatotoxicity [1]) was “Inactive”, the “LDH Increase - Index Value” (Hepatotoxicity [1]) was 0 and the “LDH Increase - Number of Reports” value (Hepatotoxicity [1]) was under 4. For the same compound, the “GGT Increase - Activity Score” value (Hepatotoxicity [2]) was “Inactive”, the “GGT Increase - Index Value” (Hepatotoxicity [2]) was 0 and the “GGT Increase - Number of Reports” value (Hepatotoxicity [2]) was under 4. The “SGOT Increase - Activity Score” value (Hepatotoxicity [3]) was “Inactive”, the “SGOT Increase - Index Value” (Hepatotoxicity [3]) was 0.2 and the “SGOT Increase - Number of Reports” value (Hepatotoxicity [3]) was under 4. The “Composite Activity - Active” value (Hepatotoxicity [4]) was 0, the “Composite Activity - Marginal” value (Hepatotoxicity [4]) was 0 and the “Composite Activity - Score” value (Hepatotoxicity [4]) was “Inactive”. For the same compound, the “Alkaline Phosphatase Increase - Activity Score” value (Hepatotoxicity [5]) was “Inactive”, the “Alkaline Phosphatase Increase - Index Value” (Hepatotoxicity [5]) was 0.2 and the “Alkaline Phosphatase Increase - Number of Reports” value (Hepatotoxicity [5]) was under 4. For the same compound, the “SGPT Increase - Activity Score” value (Hepatotoxicity [6]) was “Inactive”, the “SGPT Increase - Index Value” (Hepatotoxicity [6]) was 0.2 and the “SGPT Increase - Number of Reports” value (Hepatotoxicity [6]) was under 4.
In the case of `COc1ccc(OC)c(C(O)CNC(=O)CN)c1` (configuration not stated) [MIDODRINE], the “LDH Increase - Activity Score” value (Hepatotoxicity [1]) was “Inactive”, the “LDH Increase - Index Value” (Hepatotoxicity [1]) was 0 and the “LDH Increase - Number of Reports” value (Hepatotoxicity [1]) was under 4. For the same compound, the “GGT Increase - Activity Score” value (Hepatotoxicity [2]) was “Inactive”, the “GGT Increase - Index Value” (Hepatotoxicity [2]) was 0 and the “GGT Increase - Number of Reports” value (Hepatotoxicity [2]) was under 4. The “SGOT Increase - Activity Score” value (Hepatotoxicity [3]) was “Inactive”, the “SGOT Increase - Index Value” (Hepatotoxicity [3]) was 0 and the “SGOT Increase - Number of Reports” value (Hepatotoxicity [3]) was under 4. The “Composite Activity - Active” value (Hepatotoxicity [4]) was 0, the “Composite Activity - Marginal” value (Hepatotoxicity [4]) was 0 and the “Composite Activity - Score” value (Hepatotoxicity [4]) was “Inactive”. The “Alkaline Phosphatase Increase - Activity Score” value (Hepatotoxicity [5]) was “Inactive”, the “Alkaline Phosphatase Increase - Index Value” (Hepatotoxicity [5]) was 0 and the “Alkaline Phosphatase Increase - Number of Reports” value (Hepatotoxicity [5]) was under 4. For the same compound, the “SGPT Increase - Activity Score” value (Hepatotoxicity [6]) was “Inactive”, the “SGPT Increase - Index Value” (Hepatotoxicity [6]) was 0 and the “SGPT Increase - Number of Reports” value (Hepatotoxicity [6]) was under 4.
For `Nc1cc(N2CCCCC2)nc(N)[n+]1[O-]` [MINOXIDIL], the “LDH Increase - Activity Score” value (Hepatotoxicity [1]) was “Inactive”, the “LDH Increase - Index Value” (Hepatotoxicity [1]) was 0 and the “LDH Increase - Number of Reports” value (Hepatotoxicity [1]) was under 4. For the same compound, the “GGT Increase - Activity Score” value (Hepatotoxicity [2]) was “Inactive”, the “GGT Increase - Index Value” (Hepatotoxicity [2]) was 0.3 and the “GGT Increase - Number of Reports” value (Hepatotoxicity [2]) was under 4. For the same compound, the “SGOT Increase - Activity Score” value (Hepatotoxicity [3]) was “Inactive”, the “SGOT Increase - Index Value” (Hepatotoxicity [3]) was 0.9 and the “SGOT Increase - Number of Reports” value (Hepatotoxicity [3]) was “>= 4”. The “Composite Activity - Active” value (Hepatotoxicity [4]) was 0, the “Composite Activity - Marginal” value (Hepatotoxicity [4]) was 0 and the “Composite Activity - Score” value (Hepatotoxicity [4]) was “Inactive”. For the same compound, the “Alkaline Phosphatase Increase - Activity Score” value (Hepatotoxicity [5]) was “Inactive”, the “Alkaline Phosphatase Increase - Index Value” (Hepatotoxicity [5]) was 0.7 and the “Alkaline Phosphatase Increase - Number of Reports” value (Hepatotoxicity [5]) was “>= 4”. The “SGPT Increase - Activity Score” value (Hepatotoxicity [6]) was “Inactive”, the “SGPT Increase - Index Value” (Hepatotoxicity [6]) was 1.1 and the “SGPT Increase - Number of Reports” value (Hepatotoxicity [6]) was “>= 4”.
For `CN1CCN2c3ncccc3Cc3ccccc3C2C1` (configuration not stated) [MIRTAZAPINE], the “LDH Increase - Activity Score” value (Hepatotoxicity [1]) was “Inactive”, the “LDH Increase - Index Value” (Hepatotoxicity [1]) was 0.9 and the “LDH Increase - Number of Reports” value (Hepatotoxicity [1]) was under 4. The “GGT Increase - Activity Score” value (Hepatotoxicity [2]) was “Marginally Active”, the “GGT Increase - Index Value” (Hepatotoxicity [2]) was 3.6 and the “GGT Increase - Number of Reports” value (Hepatotoxicity [2]) was under 4. For the same compound, the “SGOT Increase - Activity Score” value (Hepatotoxicity [3]) was “Marginally Active”, the “SGOT Increase - Index Value” (Hepatotoxicity [3]) was 3.6 and the “SGOT Increase - Number of Reports” value (Hepatotoxicity [3]) was “>= 4”. The “Composite Activity - Active” value (Hepatotoxicity [4]) was 1, the “Composite Activity - Marginal” value (Hepatotoxicity [4]) was 2 and the “Composite Activity - Score” value (Hepatotoxicity [4]) was “Inactive”. The “Alkaline Phosphatase Increase - Activity Score” value (Hepatotoxicity [5]) was “Inactive”, the “Alkaline Phosphatase Increase - Index Value” (Hepatotoxicity [5]) was 0.9 and the “Alkaline Phosphatase Increase - Number of Reports” value (Hepatotoxicity [5]) was under 4. For the same compound, the “SGPT Increase - Activity Score” value (Hepatotoxicity [6]) was “Active”, the “SGPT Increase - Index Value” (Hepatotoxicity [6]) was 6.4 and the “SGPT Increase - Number of Reports” value (Hepatotoxicity [6]) was “>= 4”.
For `CCCCC(C)(O)C/C=C/[C@H]1[C@H](O)CC(=O)[C@@H]1CCCCCCC(=O)OC` (some centres not stated) [MISOPROSTOL], the “LDH Increase - Activity Score” value (Hepatotoxicity [1]) was “Inactive”, the “LDH Increase - Index Value” (Hepatotoxicity [1]) was 0.5 and the “LDH Increase - Number of Reports” value (Hepatotoxicity [1]) was under 4. For the same compound, the “GGT Increase - Activity Score” value (Hepatotoxicity [2]) was “Inactive”, the “GGT Increase - Index Value” (Hepatotoxicity [2]) was 0.5 and the “GGT Increase - Number of Reports” value (Hepatotoxicity [2]) was under 4. The “SGOT Increase - Activity Score” value (Hepatotoxicity [3]) was “Inactive”, the “SGOT Increase - Index Value” (Hepatotoxicity [3]) was 0.8 and the “SGOT Increase - Number of Reports” value (Hepatotoxicity [3]) was “>= 4”. The “Composite Activity - Active” value (Hepatotoxicity [4]) was 0, the “Composite Activity - Marginal” value (Hepatotoxicity [4]) was 0 and the “Composite Activity - Score” value (Hepatotoxicity [4]) was “Inactive”. The “Alkaline Phosphatase Increase - Activity Score” value (Hepatotoxicity [5]) was “Inactive”, the “Alkaline Phosphatase Increase - Index Value” (Hepatotoxicity [5]) was 0.8 and the “Alkaline Phosphatase Increase - Number of Reports” value (Hepatotoxicity [5]) was “>= 4”. For the same compound, the “SGPT Increase - Activity Score” value (Hepatotoxicity [6]) was “Inactive”, the “SGPT Increase - Index Value” (Hepatotoxicity [6]) was 0.2 and the “SGPT Increase - Number of Reports” value (Hepatotoxicity [6]) was under 4.
With `O=C1c2c(O)ccc(O)c2C(=O)c2c(NCCNCCO)ccc(NCCNCCO)c21` [MITOXANTRONE] the “LDH Increase - Activity Score” value (Hepatotoxicity [1]) was “Inactive”, the “LDH Increase - Index Value” (Hepatotoxicity [1]) was 0 and the “LDH Increase - Number of Reports” value (Hepatotoxicity [1]) was under 4. The “GGT Increase - Activity Score” value (Hepatotoxicity [2]) was “Inactive”, the “GGT Increase - Index Value” (Hepatotoxicity [2]) was 0 and the “GGT Increase - Number of Reports” value (Hepatotoxicity [2]) was under 4. The “SGOT Increase - Activity Score” value (Hepatotoxicity [3]) was “Active”, the “SGOT Increase - Index Value” (Hepatotoxicity [3]) was 13.5 and the “SGOT Increase - Number of Reports” value (Hepatotoxicity [3]) was under 4. For the same compound, the “Composite Activity - Active” value (Hepatotoxicity [4]) was 1, the “Composite Activity - Marginal” value (Hepatotoxicity [4]) was 0 and the “Composite Activity - Score” value (Hepatotoxicity [4]) was “Inactive”. The “Alkaline Phosphatase Increase - Activity Score” value (Hepatotoxicity [5]) was “Inactive”, the “Alkaline Phosphatase Increase - Index Value” (Hepatotoxicity [5]) was 4.5 and the “Alkaline Phosphatase Increase - Number of Reports” value (Hepatotoxicity [5]) was under 4. The “SGPT Increase - Activity Score” value (Hepatotoxicity [6]) was “Inactive”, the “SGPT Increase - Index Value” (Hepatotoxicity [6]) was 4.5 and the “SGPT Increase - Number of Reports” value (Hepatotoxicity [6]) was under 4.
With `COc1cc2c(cc1OC)[C@@H](Cc1cc(OC)c(OC)c(OC)c1)[N+](C)(CCCOC(=O)CC/C=C/CCC(=O)OCCC[N+]1(C)CCc3cc(OC)c(OC)cc3[C@H]1Cc1cc(OC)c(OC)c(OC)c1)CC2.[Cl-].[Cl-]` (some centres not stated) [MIVACURIUM CHLORIDE] the “LDH Increase - Activity Score” value (Hepatotoxicity [1]) was “Inactive”, the “LDH Increase - Index Value” (Hepatotoxicity [1]) was 0 and the “LDH Increase - Number of Reports” value (Hepatotoxicity [1]) was under 4. For the same compound, the “GGT Increase - Activity Score” value (Hepatotoxicity [2]) was “Inactive”, the “GGT Increase - Index Value” (Hepatotoxicity [2]) was 0 and the “GGT Increase - Number of Reports” value (Hepatotoxicity [2]) was under 4. The “SGOT Increase - Activity Score” value (Hepatotoxicity [3]) was “Inactive”, the “SGOT Increase - Index Value” (Hepatotoxicity [3]) was 0 and the “SGOT Increase - Number of Reports” value (Hepatotoxicity [3]) was under 4. For the same compound, the “Composite Activity - Active” value (Hepatotoxicity [4]) was 0, the “Composite Activity - Marginal” value (Hepatotoxicity [4]) was 0 and the “Composite Activity - Score” value (Hepatotoxicity [4]) was “Inactive”. For the same compound, the “Alkaline Phosphatase Increase - Activity Score” value (Hepatotoxicity [5]) was “Inactive”, the “Alkaline Phosphatase Increase - Index Value” (Hepatotoxicity [5]) was 0 and the “Alkaline Phosphatase Increase - Number of Reports” value (Hepatotoxicity [5]) was under 4. For the same compound, the “SGPT Increase - Activity Score” value (Hepatotoxicity [6]) was “Inactive”, the “SGPT Increase - Index Value” (Hepatotoxicity [6]) was 0 and the “SGPT Increase - Number of Reports” value (Hepatotoxicity [6]) was under 4.
